Results reported in patent US20230141600A1, “IMIDAZOPYRAZINE DERIVATIVES” (priority 2020, published 2023).
Where a name gives a salt, the structure may show the parent alone.

These compounds were tested on Acinetobacter baumannii ATCC17978 (assay: 90% growth inhibitory concentration (IC90) determination, antimicrobial susceptibility testing). Conditions: ATCC17978, 90% growth inhibition, Iso-Sensitest broth, OD 600 nm over 16 h, 35±2° C., read-out: ATCC 17978 IC90.
Type: cell-based
Protocol: Antimicrobial Susceptibility Testing:
90% Growth Inhibitory Concentration (IC90) Determination
The in vitro antimicrobial activity of the compounds was determined according to the following procedure:
The assay used a 10-points Iso-Sensitest broth medium to measure quantitatively the in vitro activity of the compounds against Acinetobacter baumannii ATCC17961 and ATCC17978.
Stock compounds in DMSO were serially twofold diluted (e.g. range from 50 to 0.097 μM final concentration) in 384 wells microtiter plates and inoculated with 49 μl the bacterial suspension in Iso-Sensitest medium to have a final cell concentration of ˜5×10^(5) CFU/ml in a final volume/well of 50 ul/well. Microtiter plates were incubated at 35±2° C.
Bacterial cell growth was determined with the measurement of optical density at λ=600 nm each minutes over a time course of 16 h. Growth inhibition was calculated during the logarithmic growth of the bacterial cells with determination of the concentration inhibiting 50% (IC50) and 90% (IC90) of the growth.
Table 1 provides the 90% growth inhibitory concentrations (IC90) in micromoles per liter of the compounds of present invention obtained against the strain Acinetobacter baumannii ATCC17978.

Question: With `CN(CCC1CC[N+](C)(C)CC1)C(=O)c1ccc(Nc2nccn3c(-c4ccc(OCC#N)c(F)c4F)cnc23)cc1Cl` [Example 38, 2-Chloro-4-[[3-[4-(cyanomethoxy)-2,3-difluoro-phenyl]imidazo[1,2-a]pyrazin-8-yl]amino]-N-[2-(1,1-dimethylpiperidin-1-ium-4-yl)ethyl]-N-methyl-benzamide 2,2,2-trifluoroacetate] as the compound, how does the IC90 read?
Answer: Its IC90 is 213 nM.

Question: How did the IC90 turn out when `COc1ccc(-c2cnc3c(Nc4ccc(C(=O)N(C)CCOCC[N+](C)(C)C)c(C)c4)nccn23)cc1F` [Example 35, 2-(2-(4-((3-(3-Fluoro-4-methoxyphenyl)imidazo[1,2-a]pyrazin-8-yl)amino)-N,2-dimethylbenzamido)ethoxy)-N,N,N-trimethylethan-1-aminium Chloride] was run?
Answer: Its IC90 is 1050 nM.

Question: Which IC90 does the source give for `Cc1cc(Nc2nccn3c(-c4ccc(OC(F)F)cc4)cnc23)ccc1C(=O)N1CCN(C(=O)C[N+](C)(C)C)CC1` [Example 42, [2-[4-[4-[[3-[4-(Difluoromethoxy)phenyl]imidazo[1,2-a]pyrazin-8-yl]amino]-2-methyl-benzoyl]piperazin-1-yl]-2-oxo-ethyl]-trimethyl-ammonium Chloride] here?
Answer: The IC90 was 414 nM.

Question: Which IC90 does the source give for `CCc1cc(Nc2nccn3c(-c4ccc(OC)c(F)c4F)cnc23)ccc1C(=O)NCCOCC[N+](C)(C)CC(N)=O` [Example 52, (2-Amino-2-oxo-ethyl)-[2-[2-[[4-[[3-(2,3-difluoro-4-methoxy-phenyl)imidazo[1,2-a]pyrazin-8-yl]amino]-2-ethyl-benzoyl]amino]ethoxy]ethyl]-dimethyl-ammonium Formate] here?
Answer: The IC90 was 38.8 nM.

Question: For `CCc1cc(Nc2nccn3c(-c4ccc(OC)c(F)c4F)cnc23)ccc1C(=O)NCCOCC[N+](CC)(CC)CC` [Example 40, 2-(2-(4-((3-(2,3-Difluoro-4-methoxyphenyl)imidazo[1,2-a]pyrazin-8-yl)amino)-2-ethylbenzamido)ethoxy)-N,N,N-triethylethan-1-aminium Formate], which IC90 is on record?
Answer: Its IC90 is 165 nM.

Question: With `CCc1cc(Nc2nccn3c(-c4ccc(OC)c(F)c4F)cnc23)ccc1C(=O)NCCOCC[N+](C)(C)C` [Example 13, 2-(2-(4-((3-(2,3-difluoro-4-methoxyphenyl)imidazo[1,2-a]pyrazin-8-yl)amino)-2-ethylbenzamido)ethoxy)-N,N,N-trimethylethanaminium Formate] as the compound, how does the IC90 read?
Answer: The IC90 was 109 nM.

Question: How did the IC90 turn out when `COc1ccc(-c2cnc3c(Nc4ccc(C(=O)N(C)CCC5CC[N+](C)(C)CC5)c(C)c4)nccn23)c(F)c1F` [Example 22, 4-[[3-(2,3-Difluoro-4-methoxy-phenyl)imidazo[1,2-a]pyrazin-8-yl]amino]-N-[2-(1,1-dimethylpiperidin-1-ium-4-yl)ethyl]-N,2-dimethyl-benzamide 2,2,2-trifluoroacetate] was run?
Answer: Its IC90 is 260 nM.

Question: How did the IC90 turn out when `Cc1cc(Nc2nccn3c(-c4ccc(OC(F)F)cc4)cnc23)ccc1C(=O)NCCOCC[N+](C)(C)C` [Example 1, 2-(2-(4-((3-(4-(difluoromethoxy)phenyl)imidazo[1,2-a]pyrazin-8-yl)amino)-2-methylbenzamido)ethoxy)-N,N,N-trimethylethanaminium Iodide] was run?
Answer: Its IC90 is 658 nM.

Question: Which IC90 does the source give for `C[N+](C)(C)CCN1CCN(C(=O)c2ccc(Nc3nccn4c(-c5ccc(OCC#N)c(F)c5F)cnc34)cc2Cl)CC1` [Example 26, 2-[4-[2-chloro-4-[[3-[4-(cyanomethoxy)-2,3-difluorophenyl]imidazo[1,2-a]pyrazin-8-yl]amino]benzoyl]piperazin-1-yl]ethyl-trimethylazanium Iodide] here?
Answer: The IC90 was 156 nM.

Question: With `Cc1cc(Nc2nccn3c(-c4ccc(OC(F)F)cc4)cnc23)ccc1C(=O)N1CCN(C(=O)N2CCOC(C[N+](C)(C)C)C2)CC1` (stereo not shown) [Example 33, [4-[4-[4-[[3-[4-(Difluoromethoxy)phenyl]imidazo[1,2-a]pyrazin-8-yl]amino]-2-methyl-benzoyl]piperazine-1-carbonyl]morpholin-2-yl]methyl-trimethyl-ammonium Formate] as the compound, how does the IC90 read?
Answer: The IC90 was 996 nM.

Question: How did the IC90 turn out when `Cc1cc(Nc2nccn3c(-c4ccc(OCC#CCN)cc4)cnc23)ccc1C(=O)N(C)CCC1CC[N+](C)(C)CC1` [Example 5, 4-[[3-[4-(4-aminobut-2-ynoxy)phenyl]imidazo[1,2-a]pyrazin-8-yl]amino]-N-[2-(1,1-dimethylpiperidin-1-ium-4-yl)ethyl]-N,2-dimethyl-benzamide Formate] was run?
Answer: The IC90 was 2130 nM.

Question: `CCc1cc(Nc2nccn3c(-c4ccc(OC)c(F)c4F)cnc23)ccc1C(=O)NCCOCC[N+](C)(C)CC(=O)O` [Example 50, Carboxymethyl-[2-[2-[[4-[[3-(2,3-difluoro-4-methoxy-phenyl)imidazo[1,2-a]pyrazin-8-yl]amino]-2-ethyl-benzoyl]amino]ethoxy]ethyl]-dimethyl-ammonium Formate] was tested. Which IC90 did it give?
Answer: Its IC90 is 394 nM.

Question: For `COc1ccc(-c2cnc3c(Nc4ccc(C(=O)NCCC[N+](C)(C)C)c(Cl)c4)nccn23)c(F)c1F` [Example 47, 3-[[2-Chloro-4-[[3-(2,3-difluoro-4-methoxy-phenyl)imidazo[1,2-a]pyrazin-8-yl]amino]benzoyl]amino]propyl-trimethyl-ammonium Formate], which IC90 is on record?
Answer: The IC90 was 383 nM.

Question: `COc1ccc(-c2cnc3c(Nc4ccc(C(=O)N5CCN(CC[N+](C)(C)C)CC5)c(Br)c4)nccn23)cc1F` [Example 14, 2-[4-[2-Bromo-4-[[3-(3-fluoro-4-methoxy-phenyl)imidazo[1,2-a]pyrazin-8-yl]amino]benzoyl]piperazin-1-yl]ethyl-trimethyl-ammonium 2,2,2-trifluoroacetate] was tested. Which IC90 did it give?
Answer: The IC90 was 476 nM.

Question: How did the IC90 turn out when `CCCC[N+](CCCC)(CCCC)CCCNC(=O)c1ccc(Nc2nccn3c(-c4ccc(OC)c(F)c4F)cnc23)cc1Cl` [Example 49, Tributyl-[3-[[2-chloro-4-[[3-(2,3-difluoro-4-methoxy-phenyl)imidazo[1,2-a]pyrazin-8-yl]amino]benzoyl]amino]propyl]ammonium Formate] was run?
Answer: The IC90 was 968 nM.

Question: How did the IC90 turn out when `COc1ccc(-c2cnc3c(Nc4ccc(C(=O)N5CCN(C(=O)C[N+](C)(C)C)CC5)c(Cl)c4)nccn23)cc1F` [Example 31, [2-[4-[2-Chloro-4-[[3-(3-fluoro-4-methoxyphenyl)imidazo[1,2-a]pyrazin-8-yl]amino]benzoyl]piperazin-1-yl]-2-oxoethyl]-trimethylazanium Formate] was run?
Answer: The IC90 was 120 nM.

Question: For `Cc1cc(Nc2nccn3c(-c4ccc(OC(F)F)cc4)cnc23)ccc1C(=O)N(C)CCC1CC[N+](C)(C)CC1` [Example 19, 4-(2-(4-((3-(4-(difluoromethoxy)phenyl)imidazo[1,2-a]pyrazin-8-yl)amino)-N,2-dimethylbenzamido)ethyl)-1,1-dimethylpiperidin-1-ium Formate], which IC90 is on record?
Answer: Its IC90 is 446 nM.

Question: With `CN(CCN1CC[N+](C)(C)CC1)C(=O)c1ccc(Nc2nccn3c(-c4ccc(OCC#N)c(F)c4F)cnc23)cc1Cl` [Example 34, 2-Chloro-4-[[3-[4-(cyanomethoxy)-2,3-difluoro-phenyl]imidazo[1,2-a]pyrazin-8-yl]amino]-N-[2-(4,4-dimethylpiperazin-4-ium-1-yl)ethyl]-N-methyl-benzamide iodide] as the compound, how does the IC90 read?
Answer: Its IC90 is 246 nM.

Same assay, conditions: ATCC17978, 16 h, read-out: ATCC 17978 IC90

Question: How did the IC90 turn out when `Cc1cc(Nc2nccn3c(-c4ccc(OCC#N)c(F)c4F)cnc23)ccc1C(=O)N1CCC(CC[N+](C)(C)C)CC1` [Example 2, 2-[1-[4-[[3-[4-(Cyanomethoxy)-2,3-difluoro-phenyl]imidazo[1,2-a]pyrazin-8-yl]amino]-2-methyl-benzoyl]-4-piperidyl]ethyl-trimethyl-ammonium Formate] was run?
Answer: The IC90 was 214 nM.
